Legend:
EMT-6 tumor cells = assay: In vitro clonogenic assay (PDT phototoxic effect); type: cell-based; conditions: 2 hours incubation; for inhibition at 5 µM: Mus musculus
Procedure: The feasibility of using these alternative light sources as over the counter devices for topical PDT application is tested using an in vitro clonogenic assay to assess their ability to generate a phototoxic effect with SL-017, a known photosensitizer.
In vitro clonogenic assay. EMT-6 tumor cells are grown in culture in RPMI 1640 and plated onto Petri dishes. The photosensitizer SL-017 is added at a fixed concentration of 5 μM to the dishes and allowed to incubate for 2 hours, and then removed. The dishes are irradiated using the different two LED light sources and the orange (rhodamine 6G) chemiluminescent light source at pre-determined light doses. The EMT-6 cells are then re-plated and allowed to grow, for 5 to 7 days The number of surviving colonies in the control and treated plates are counted visually and compared.

mouse skin = type: in vivo, Male Balb/c mice
Procedure: The feasibility of using these alternative light sources as over the counter devices for topical PDT application is tested using an in vivo hair removal assay to assess their ability to generate a hair removal effect on mouse skin using SL-017, a known photosensitizer. Mouse strain. Male Balb/c mice of approximately 6 to 8 weeks of age weighing 16 to 18 grams were obtained from Charles River animal facility. The animals were allowed a minimum of 1 week to acclimatize to the facility prior to treatment. In vivo hair removal assay. The animals were anesthetized with a 0.1 ml intra peritoneal injection of 12 mg/ml sodium pentobarbital in 0.9% Saline. An approximately 1.5×1.5 cm square area on the back of each animal was shaved and the area treated with a 2% SL-017 topical gel for 60 minutes. The excess gel was removed from the area and it was covered with a template with a 1 cm diameter opening. The open area was treated with either 15 or 30 J/cm^2 of light from a LED flashlight. […] The mice were monitored once weekly for the re-growth of hair in the treated area. For the white LED, the treatment time required for the 15 J/cm^2 dose group was 5 minutes and 45 sec. while for the 30 J/cm^2 dose group was 11 minutes and 30 seconds. For the red LED, the treatment time required for the 15 J/cm^2 dose group was 45 minutes, and for the 30 J/cm^2 dose group was 90 minutes.

COc1c2c3c4c(c(NCCCN(C)C)c(=O)c5c(O)cc(OC)c(c6c(OC)cc(O)c(c1=O)c63)c54)C=C(C)C2C(C)=O (stereo not shown) [SL-017]
inhibition at 5 µM (EMT-6 tumor cells; EMT6, SL-017 5 μM, orange (rhodamine 6G) chemiluminescent light stick, 1 hour exposure): 31.3% | inhibition at 5 µM (EMT-6 tumor cells; EMT6, light or radiation study, 2 h, SL-017 5 μM, red LED light (3 W), 0.1 J/cm^2): 100% | inhibition at 5 µM (EMT-6 tumor cells; EMT6, light or radiation study, 2 h, SL-017 5 μM, red LED light (3 W), 0.25 J/cm^2): 100% | inhibition at 5 µM (EMT-6 tumor cells; EMT6, light or radiation study, 2 h, SL-017 5 μM, red LED light (3 W), 0.4 J/cm^2): 100% | inhibition at 5 µM (EMT-6 tumor cells; EMT6, light or radiation study, 2 h, SL-017 5 μM, white LED light (9 W), 0.5 J/cm^2): 98.6% | inhibition at 5 µM (EMT-6 tumor cells; EMT6, light or radiation study, 2 h, SL-017 5 μM, white LED light (9 W), 1.0 J/cm^2): 100% | inhibition at 5 µM (EMT-6 tumor cells; EMT6, light or radiation study, 2 h, SL-017 5 μM, white LED light (9 W), 2.0 J/cm^2): 100% | Number of Colonies (EMT-6 tumor cells; SL-017 5 μM, orange (rhodamine 6G) chemiluminescent light stick, 1 hour exposure): 86.3 | Number of Colonies (EMT-6 tumor cells; SL-017 5 μM, orange (rhodamine 6G) chemiluminescent light stick, 2 hour exposure): 187.3 | Number of Colonies (EMT-6 tumor cells; SL-017 5 μM, red LED light (3 W), 0.1 J/cm^2): 0 | Number of Colonies (EMT-6 tumor cells; SL-017 5 μM, red LED light (3 W), 0.25 J/cm^2): 0 | Number of Colonies (EMT-6 tumor cells; SL-017 5 μM, red LED light (3 W), 0.4 J/cm^2): 0 | Number of Colonies (EMT-6 tumor cells; SL-017 5 μM, white LED light (9 W), 0.5 J/cm^2): 1.8 | Number of Colonies (EMT-6 tumor cells; SL-017 5 μM, white LED light (9 W), 1.0 J/cm^2): 0 | Number of Colonies (EMT-6 tumor cells; SL-017 5 μM, white LED light (9 W), 2.0 J/cm^2): 0 | delay in hair re-growth (mouse skin; 2% SL-017 topical gel for 60 minutes, red LED light, 30 J/cm^2): 3 weeks | re-growth of hair in the treated area versus controls (mouse skin; 2% SL-017 topical gel for 60 minutes, white LED light, 15 J/cm^2): no differences in the re-growth of hair | delay in re-growth of hair (mouse skin; 2% SL-017 topical gel for 60 minutes, white LED light, 30 J/cm^2): < 1 week | skin reaction post treatment at the treated site (mouse skin; mouse, in vivo): erythema is observed
